Measurements taken from the supplement of paper PMC10307832.

Tests used:
Experiment in all cases: relative viability (nuclei count vs DMSO), 5 days (fraction); higher = more cells survive
[1] = compound: O=c1[nH]cc(F)c(=O)[nH]1 [5-Fluorouracil] + CS(=O)(=O)N1CCN(Cc2cc3nc(-c4cccc5[nH]ncc45)nc(N4CCOCC4)c3s2)CC1 [Pictilisib] (partner 1 µM)
Procedure, shortened: (§1)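 Lung cancer cell lines were seeded in 1536-well plates and dosed by pin tool the next day, with either a single drug or a fixed anchor-drug dose combined with five library-drug doses (not always all listed) spaced in √10 steps. Five days later, one step fixed the cells and stained their nuclei (final 0.05% Triton X-100, 1% formaldehyde, 1 ug/ml Hoechst), and nuclei were counted on 4× images. Relative viability is the nuclei count in treated wells divided by the count in vehicle wells, and each value is the median of duplicate plates.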

Staurosporine + OSI-027 = compound: CN[C@@H]1C[C@H]2O[C@@](C)([C@@H]1OC)n1c3ccccc3c3c4c(c5c6ccccc6n2c5c31)C(=O)NC4 [Staurosporine] + COc1cccc2cc(-c3nc([C@H]4CC[C@H](C(=O)O)CC4)n4ncnc(N)c34)[nH]c12 [OSI-027] (partner 0.5 µM)
Procedure, shortened: as §1

[2] = compound: O=c1[nH]cc(F)c(=O)[nH]1 [5-Fluorouracil] + O=C(c1cc(Cc2n[nH]c(=O)c3ccccc23)ccc1F)N1CCN(C(=O)C2CC2)CC1 [Olaparib] (partner 8 µM)
Procedure, shortened: as §1

Staurosporine + Olaparib = compound: CN[C@@H]1C[C@H]2O[C@@](C)([C@@H]1OC)n1c3ccccc3c3c4c(c5c6ccccc6n2c5c31)C(=O)NC4 [Staurosporine] + O=C(c1cc(Cc2n[nH]c(=O)c3ccccc23)ccc1F)N1CCN(C(=O)C2CC2)CC1 [Olaparib] (partner 8 µM)
Procedure, shortened: as §1

Cell Line: NCI-H1395
- relative viability ([1]; first compound 0.02 µM): 0.581
- relative viability ([1]; first compound 0.2 µM): 0.62
- relative viability ([1]; first compound 0.6325 µM): 0.578
- relative viability ([1]; first compound 2 µM): 0.594
- relative viability (Staurosporine + OSI-027; first compound 0.005 µM): 0.605
- relative viability (Staurosporine + OSI-027; first compound 0.01581 µM): 0.395
- relative viability (Staurosporine + OSI-027; first compound 0.05 µM): 0.42
- relative viability (Staurosporine + OSI-027; first compound 0.1581 µM): 0.249
- relative viability (Staurosporine + OSI-027; first compound 0.5 µM): 0.239
- relative viability ([2]; first compound 0.02 µM): 0.481
- relative viability ([2]; first compound 0.2 µM): 0.445
- relative viability ([2]; first compound 0.6325 µM): 0.557
- relative viability ([2]; first compound 2 µM): 0.479
- relative viability (Staurosporine + Olaparib; first compound 0.005 µM): 0.443
- relative viability (Staurosporine + Olaparib; first compound 0.01581 µM): 0.395
- relative viability (Staurosporine + Olaparib; first compound 0.05 µM): 0.379
- relative viability (Staurosporine + Olaparib; first compound 0.1581 µM): 0.328
- relative viability (Staurosporine + Olaparib; first compound 0.5 µM): 0.274

Cell Line: NCI-H2023
- relative viability ([1]; first compound 0.02 µM): 0.283
- relative viability ([1]; first compound 0.2 µM): 0.164
- relative viability ([1]; first compound 0.6325 µM): 0.0894
- relative viability ([1]; first compound 2 µM): 0.0821
- relative viability (Staurosporine + OSI-027; first compound 0.005 µM): 0.185
- relative viability (Staurosporine + OSI-027; first compound 0.01581 µM): 0.101
- relative viability (Staurosporine + OSI-027; first compound 0.05 µM): 0.084
- relative viability (Staurosporine + OSI-027; first compound 0.1581 µM): 0.0704
- relative viability (Staurosporine + OSI-027; first compound 0.5 µM): 0.0498
- relative viability ([2]; first compound 0.02 µM): 0.517
- relative viability ([2]; first compound 0.2 µM): 0.196
- relative viability ([2]; first compound 0.6325 µM): 0.111
- relative viability ([2]; first compound 2 µM): 0.0832
- relative viability (Staurosporine + Olaparib; first compound 0.005 µM): 0.265
- relative viability (Staurosporine + Olaparib; first compound 0.01581 µM): 0.192
- relative viability (Staurosporine + Olaparib; first compound 0.05 µM): 0.117
- relative viability (Staurosporine + Olaparib; first compound 0.1581 µM): 0.0758
- relative viability (Staurosporine + Olaparib; first compound 0.5 µM): 0.0558

Cell Line: NCI-H1651
- relative viability ([1]; first compound 0.02 µM): 0.523
- relative viability ([1]; first compound 0.2 µM): 0.57
- relative viability ([1]; first compound 0.6325 µM): 0.412
- relative viability ([1]; first compound 2 µM): 0.444
- relative viability (Staurosporine + OSI-027; first compound 0.005 µM): 0.523
- relative viability (Staurosporine + OSI-027; first compound 0.01581 µM): 0.396
- relative viability (Staurosporine + OSI-027; first compound 0.05 µM): 0.304
- relative viability (Staurosporine + OSI-027; first compound 0.1581 µM): 0.114
- relative viability (Staurosporine + OSI-027; first compound 0.5 µM): 0.129
- relative viability ([2]; first compound 0.02 µM): 0.172
- relative viability ([2]; first compound 0.2 µM): 0.2
- relative viability ([2]; first compound 0.6325 µM): 0.188
- relative viability ([2]; first compound 2 µM): 0.175
- relative viability (Staurosporine + Olaparib; first compound 0.005 µM): 0.153
- relative viability (Staurosporine + Olaparib; first compound 0.01581 µM): 0.159
- relative viability (Staurosporine + Olaparib; first compound 0.05 µM): 0.168
- relative viability (Staurosporine + Olaparib; first compound 0.1581 µM): 0.15
- relative viability (Staurosporine + Olaparib; first compound 0.5 µM): 0.126

Cell Line: HARA
- relative viability ([1]; first compound 0.02 µM): 0.562
- relative viability ([1]; first compound 0.2 µM): 0.518
- relative viability ([1]; first compound 0.6325 µM): 0.321
- relative viability ([1]; first compound 2 µM): 0.373
- relative viability (Staurosporine + OSI-027; first compound 0.005 µM): 0.448
- relative viability (Staurosporine + OSI-027; first compound 0.05 µM): 0.128
- relative viability (Staurosporine + OSI-027; first compound 0.1581 µM): 0.0628
- relative viability (Staurosporine + OSI-027; first compound 0.5 µM): 0.0398
- relative viability ([2]; first compound 0.02 µM): 0.775
- relative viability ([2]; first compound 0.2 µM): 1.01
- relative viability ([2]; first compound 0.6325 µM): 0.623
- relative viability ([2]; first compound 2 µM): 0.845
- relative viability (Staurosporine + Olaparib; first compound 0.005 µM): 0.682
- relative viability (Staurosporine + Olaparib; first compound 0.01581 µM): 0.363
- relative viability (Staurosporine + Olaparib; first compound 0.05 µM): 0.156
- relative viability (Staurosporine + Olaparib; first compound 0.1581 µM): 0.126
- relative viability (Staurosporine + Olaparib; first compound 0.5 µM): 0.131

Cell Line: NCI-H1944
- relative viability ([1]; first compound 0.02 µM): 0.4
- relative viability ([1]; first compound 0.2 µM): 0.357
- relative viability ([1]; first compound 0.6325 µM): 0.295
- relative viability ([1]; first compound 2 µM): 0.243
- relative viability (Staurosporine + OSI-027; first compound 0.005 µM): 0.322
- relative viability (Staurosporine + OSI-027; first compound 0.01581 µM): 0.153
- relative viability (Staurosporine + OSI-027; first compound 0.05 µM): 0.257
- relative viability (Staurosporine + OSI-027; first compound 0.1581 µM): 0.166
- relative viability (Staurosporine + OSI-027; first compound 0.5 µM): 0.119
- relative viability ([2]; first compound 0.02 µM): 0.389
- relative viability ([2]; first compound 0.2 µM): 0.379
- relative viability ([2]; first compound 0.6325 µM): 0.298
- relative viability ([2]; first compound 2 µM): 0.187
- relative viability (Staurosporine + Olaparib; first compound 0.005 µM): 0.38
- relative viability (Staurosporine + Olaparib; first compound 0.01581 µM): 0.226
- relative viability (Staurosporine + Olaparib; first compound 0.05 µM): 0.284
- relative viability (Staurosporine + Olaparib; first compound 0.1581 µM): 0.273
- relative viability (Staurosporine + Olaparib; first compound 0.5 µM): 0.261

Cell Line: NCI-H2405
- relative viability ([1]; first compound 0.02 µM): 0.566
- relative viability ([1]; first compound 0.2 µM): 0.536
- relative viability ([1]; first compound 0.6325 µM): 0.303
- relative viability ([1]; first compound 2 µM): 0.463
- relative viability (Staurosporine + OSI-027; first compound 0.005 µM): 0.593
- relative viability (Staurosporine + OSI-027; first compound 0.01581 µM): 0.182
- relative viability (Staurosporine + OSI-027; first compound 0.05 µM): 0.116
- relative viability (Staurosporine + OSI-027; first compound 0.1581 µM): 0.0974
- relative viability (Staurosporine + OSI-027; first compound 0.5 µM): 0.0903
- relative viability ([2]; first compound 0.02 µM): 0.808
- relative viability ([2]; first compound 0.2 µM): 0.962
- relative viability ([2]; first compound 0.6325 µM): 0.891
- relative viability ([2]; first compound 2 µM): 0.618
- relative viability (Staurosporine + Olaparib; first compound 0.005 µM): 0.204
- relative viability (Staurosporine + Olaparib; first compound 0.01581 µM): 0.179
- relative viability (Staurosporine + Olaparib; first compound 0.05 µM): 0.14
- relative viability (Staurosporine + Olaparib; first compound 0.1581 µM): 0.122
- relative viability (Staurosporine + Olaparib; first compound 0.5 µM): 0.0873

Cell Line: 201T
- relative viability ([1]; first compound 0.02 µM): 0.759
- relative viability ([1]; first compound 0.2 µM): 0.597
- relative viability ([1]; first compound 0.6325 µM): 0.442
- relative viability ([1]; first compound 2 µM): 0.373
- relative viability (Staurosporine + OSI-027; first compound 0.005 µM): 0.462
- relative viability (Staurosporine + OSI-027; first compound 0.01581 µM): 0.338
- relative viability (Staurosporine + OSI-027; first compound 0.05 µM): 0.454
- relative viability (Staurosporine + OSI-027; first compound 0.1581 µM): 0.247
- relative viability ([2]; first compound 0.02 µM): 0.82
- relative viability ([2]; first compound 0.6325 µM): 0.252
- relative viability ([2]; first compound 2 µM): 0.249
- relative viability (Staurosporine + Olaparib; first compound 0.005 µM): 0.834
- relative viability (Staurosporine + Olaparib; first compound 0.05 µM): 0.749
- relative viability (Staurosporine + Olaparib; first compound 0.1581 µM): 0.581
- relative viability (Staurosporine + Olaparib; first compound 0.5 µM): 0.537

Cell Line: RERF-LC-KJ
- relative viability ([1]; first compound 0.02 µM): 0.587
- relative viability ([1]; first compound 0.2 µM): 0.593
- relative viability ([1]; first compound 0.6325 µM): 0.604
- relative viability ([1]; first compound 2 µM): 0.465
- relative viability (Staurosporine + OSI-027; first compound 0.005 µM): 0.475
- relative viability (Staurosporine + OSI-027; first compound 0.01581 µM): 0.3
- relative viability (Staurosporine + OSI-027; first compound 0.05 µM): 0.234
- relative viability (Staurosporine + OSI-027; first compound 0.1581 µM): 0.234
- relative viability (Staurosporine + OSI-027; first compound 0.5 µM): 0.181
- relative viability ([2]; first compound 0.02 µM): 0.985
- relative viability ([2]; first compound 0.2 µM): 0.829
- relative viability ([2]; first compound 0.6325 µM): 0.878
- relative viability ([2]; first compound 2 µM): 0.763
- relative viability (Staurosporine + Olaparib; first compound 0.005 µM): 0.726
- relative viability (Staurosporine + Olaparib; first compound 0.01581 µM): 0.537
- relative viability (Staurosporine + Olaparib; first compound 0.05 µM): 0.304
- relative viability (Staurosporine + Olaparib; first compound 0.1581 µM): 0.228
- relative viability (Staurosporine + Olaparib; first compound 0.5 µM): 0.188
